Results as given in US7414023B2, “Peptide ligands for prostate specific antigen” (Licentia Ltd., priority 2000, dated 2008).
Bridge positions count the residues as written; N and C are the ends. Peptide text beside a SMILES is read from it.

Columns and labels:
[1] = molecular target: T1, PSA (Homo sapiens, UniProt P07288); assay: Enzyme activity of PSA with chromogenic substrate S-2586; type: biochemical; parameters: PSA was purified from human seminal fluid as described previously (3); from tissue; host or cells: human seminal fluid; settings: GST-peptides, S-2586; for minimum peptide concentration affecting the activity: PSA enzyme activity
T1 sequence (P07288 25-261): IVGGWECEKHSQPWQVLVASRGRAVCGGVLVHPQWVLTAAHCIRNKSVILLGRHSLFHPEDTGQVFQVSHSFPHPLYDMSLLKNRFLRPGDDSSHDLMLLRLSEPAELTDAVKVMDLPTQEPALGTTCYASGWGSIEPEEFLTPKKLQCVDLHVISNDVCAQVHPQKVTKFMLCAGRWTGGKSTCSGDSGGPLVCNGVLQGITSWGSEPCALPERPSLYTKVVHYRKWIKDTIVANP
Method: The enzyme activity of PSA was studied in the presence of peptides alone or together with Zn^2+ by using the chymotrypsin substrate S-2586 (MeO-Suc-Arg-Pro-Tyr-pNA) (Chromogenix, Mölndal, Sweden). […] PSA (333 nM) was incubated with a 1-100-fold molar excess of GST-peptide or 100-fold excess of synthetic peptide in TBS buffer, pH 7.8 containing 0.5 g/L BSA for 1 h at 22° C. The effect of Zn^2+ on the enzyme activity of PSA was studied by including 1-200 μM of ZnCl2 in the reaction buffer. The combined effect of peptides and Zn2+ on the enzyme activity of PSA was studied by incubating PSA (333 nM) with peptide (333 nM) in the buffer containing 1-200 μM Zn^2+ for 1 h. After addition of substrate to a final concentration 0.2 mM, the absorbance was monitored at 5-min intervals for 2 h at 405 nm on a Labsystems Multiskan MCC/340 photometer (Labsystems, Helsinki, Finland). As a control, the effect of wild type GST on the enzyme activity of PSA was tested.
In the experiments, PSA (0.33 μM) was incubated with increasing concentrations of GST-C-4 (0-100-fold molar excess) for 1 h, after which the chromogenic substrate S-2586 was added and enzyme activity was monitored by measuring the absorbance at 405 nm. Data represent mean values from duplicate wells ±SE.
PSA (0.33 μM) was incubated with chemically synthesized peptides (100-fold molar excess) for 1 h, after which the chromogenic substrate S-2586 was added and enzyme activity was monitored by measuring the absorbance at 405 nm.
Because zinc is known to inhibit the enzyme activity of PSA, we further characterized the effect of GST-peptides on the enzyme activity of PSA by assessing the combined effect of peptides and Zn^2+. […] The effect of GST-C-4 and Zn^2+ on enzyme activity was determined by incubating PSA (0.33 μM) with the same molar concentration of GST-C-4 and various concentrations of Zn^2+. The reaction was monitored by measuring absorbance at 405 nm after addition of the chromogenic substrate S-2586. […] Data represent mean values from duplicate wells ±SE.
(§1) Data represent mean values from duplicate wells ±SE.
As control the enzyme activity of PSA alone was measured.
as §1
20 μg of the peptide was iodinated by the Iodogen method. After iodination the peptide was purified by using C18 Sep-Pak column.

[2] = molecular target: T1, PSA; assay: Proteolytic cleavage of IGF-BP-3 by PSA, IGF-BP-3 IFMA; type: biochemical; parameters: PSA was purified from human seminal fluid as described previously (3); from tissue; host or cells: human seminal fluid; settings: PSA 5 μg/mL, 100-fold molar excess of synthetic peptide, IGF-BP-3 70 ng/mL, 16 h at 37° C.; PSA alone 30%
Method: The extent of the cleavage of the substrate was quantitated by monitoring the decrease in IGF-BP-3 immunoreactivity due to proteolytic cleavage of it. PSA (5 μg/mL) was incubated with IGF-BP-3 (70 ng/mL) for 16 h at 37° C. with 100-fold molar excess of peptides to PSA and measured for IGF-BP3 immunoreactivity by IFMA as described (33). As control, the peptide was also added to the reaction mixture containing PSA and IGF-BP3 just before starting the immunoassay to quantify the possible interference of the peptide in the IFMA for IGF-BP-3.
In the experiments, PSA (5 μg/mL) in TBS buffer, pH 7.8 alone or with 100-fold molar excess of peptide was incubated with IGF-BP-3 (70 ng/mL) for 16 h at 37° C., after which the concentration of intact IGF-BP-3 was determined by IFMA.

Compound	minimum peptide concentration affecting the activity [1]	cleavage of IGF-BP-3 by PSA in the presence of peptide [2]	EC50 ([1]; PSA 0.33 μM, read-out: 50% stimulation (μM): peptide concentration required for half maximal stimulation of the enzyme activity of PSA)
CC(C)C[C@@H]1NC(=O)[C@H](Cc2ccc(O)cc2)NC(=O)[C@H](CC(=O)O)NC(=O)[C@H](Cc2ccc(O)cc2)NC(=O)[C@H](CC(N)=O)NC(=O)[C@H](Cc2c[nH]cn2)NC(=O)[C@H](C)NC(=O)[C@H](Cc2ccccc2)NC(=O)[C@H](C(C)C)NC(=O)[C@@H](N)CSSC[C@@H](C(=O)O)NC(=O)[C@H](C(C)C)NC1=O [Peptide B-2] (H-CVFAHNYDYLVC-OH; disulfide 1-12; N-terminus assumed)	300 nM		
CVFTSDYAFC [Peptide A-1]	300 nM	about 70%	2.2 µM
